Measurements: US20150197497A1, “SELECTIVE INHIBITORS OF HISTONE DEACETYLASE ISOFORM 6 AND METHODS THEREOF” (DANA-FARBER CANCER INSTITUTE, INC., priority 2011, published 2015)
pEC50, pIC50: −log10 of the molar value.

How the values were obtained:
HDAC5 = target: T1, HDAC5 (Homo sapiens, UniProt Q9UQL6); assay: In vitro HDAC enzyme inhibition assay, HDAC5; type: biochemical; details: for HDAC5/HDAC6 in vitro selectivity: ratio of IC50 for HDAC5 relative to that of HDAC6; for pIC50: recombinant full-length HDAC5, substrate MAZ1675 40 μM; for selectivity toward HDAC6 compared to HDAC5 (in words): tested in vitro
T1 construct: Recombinant, full-length HDAC protein (BPS Biosciences) was incubated with fluorophore conjugated substrate; purchased BPS Biosciences
T1 sequence (Q9UQL6 whole entry): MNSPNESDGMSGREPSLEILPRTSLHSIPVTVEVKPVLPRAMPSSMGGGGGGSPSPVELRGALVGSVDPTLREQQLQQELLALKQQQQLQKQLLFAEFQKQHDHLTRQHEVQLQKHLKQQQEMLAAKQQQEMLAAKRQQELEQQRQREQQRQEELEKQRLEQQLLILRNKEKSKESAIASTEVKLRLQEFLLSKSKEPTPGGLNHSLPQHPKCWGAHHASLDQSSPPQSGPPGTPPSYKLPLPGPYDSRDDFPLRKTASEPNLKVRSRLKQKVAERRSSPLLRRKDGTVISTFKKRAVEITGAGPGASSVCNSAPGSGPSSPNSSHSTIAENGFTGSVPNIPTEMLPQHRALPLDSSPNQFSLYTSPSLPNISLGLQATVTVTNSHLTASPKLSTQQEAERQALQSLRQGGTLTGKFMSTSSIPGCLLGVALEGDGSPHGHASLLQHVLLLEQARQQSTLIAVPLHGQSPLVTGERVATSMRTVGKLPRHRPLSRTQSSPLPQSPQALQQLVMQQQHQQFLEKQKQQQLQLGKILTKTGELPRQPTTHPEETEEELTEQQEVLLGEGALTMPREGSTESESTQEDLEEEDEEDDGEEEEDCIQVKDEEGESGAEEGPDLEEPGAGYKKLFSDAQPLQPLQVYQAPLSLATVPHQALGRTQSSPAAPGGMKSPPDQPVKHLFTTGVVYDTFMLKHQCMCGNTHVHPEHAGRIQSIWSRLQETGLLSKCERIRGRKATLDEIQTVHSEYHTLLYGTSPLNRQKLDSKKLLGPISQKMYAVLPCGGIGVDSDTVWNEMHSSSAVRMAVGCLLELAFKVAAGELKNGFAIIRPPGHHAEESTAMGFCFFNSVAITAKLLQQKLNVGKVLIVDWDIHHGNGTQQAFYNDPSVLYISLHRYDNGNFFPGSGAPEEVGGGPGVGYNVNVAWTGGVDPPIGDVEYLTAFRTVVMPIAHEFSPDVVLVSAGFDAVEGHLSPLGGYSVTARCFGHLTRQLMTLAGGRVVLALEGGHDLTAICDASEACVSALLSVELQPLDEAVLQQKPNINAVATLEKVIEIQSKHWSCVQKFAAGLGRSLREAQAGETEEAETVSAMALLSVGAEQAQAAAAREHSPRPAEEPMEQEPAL
Method: (§1) In vitro Histone Deacetylase enzyme assays were performed using Class I (isoforms: HDAC1, HDAC2, HDAC3 and HDAC8), class IIa (isoforms: HDAC4, HDAC5, HDAC7 and HDAC9) and class IIb (isoform HDAC6).
(§2) HDAC activities were determined in vitro with an optimized homogenous assay performed in a 384-well plate. Recombinant, full-length HDAC protein (BPS Biosciences) was incubated with fluorophore conjugated substrate, MAZ1600 and MAZ1675, at Km=[S]. […] Reactions were performed in assay buffer (50 mM HEPES, 100 mM KCl, 0.001% Tween-20, 0.05% BSA, 200 μM tris(2-carboxyethyl)phosphine (TCEP), pH 7.4) and followed for fluorogenic release of 7-amino-4-methylcoumarin from substrate upon deacetylase and trypsin enzymatic activity. Fluorescence measurements were obtained every five minutes using a multilabel plate reader and plate-stacker (Envision; Perkin-Elmer). Each plate was analyzed by plate repeat, and the first derivative within the linear range was imported into analytical software (Spotfire DecisionSite and GraphPad Prism). Replicate experimental data from incubations with inhibitor were normalized to controls.

acetylated tubulin = assay: High-content image analysis of induction of acetylated tubulin in A549 cells; details: for pEC50: Homo sapiens, A549, 8 h, read-out: EC50 for half-maximal induction of acetylated tubulin (AcTubulin); for AcHistone/AcTubulin in cell selectivity toward HDAC6: ratio of EC50 acetylated histone to EC50 acetylated tubulin, A549 cells
Method: Cells were treated with each test HDACi compound with an automated pin transfer instrument (Janus, Perkin Elmer) and incubated for 8 hours. […] Fixation solution was aspirated and 90 μL of washing solution (0.1% Triton X-100 in PBS) was added prior to 10 minute incubation at 4° C. Washing solution was aspirated and cells were incubated at 4° C. for about 1 hour in blocking solution (0.1% Triton X-100+2% BSA in PBS). Washing solution was aspirated, and cells were incubated for about 1 hour at 4° C. in primary antibody for acetylated-tubulin (Sigma T7451) and acetylated-histone (Cell Signaling #9441L) at a 1:1000 dilution in blocking solution. Primary antibody solution was aspirated, and cells were washed three times in 90 μL of washing solution. […] Secondary antibody and nuclear staining solution was aspirated and cells were washed three times in 90 μL of washing solution. After the third wash, 50 μL of PBS was added to each well. Image acquisition was done on a high content imaging microscope (ImageXpress Micro, Molecular Devices), and image analysis (MetaXpress, Molecular Devices) was performed to obtain average acetylated-tubulin and acetylated-histone signal per cell based on treatment. Replicate experimental data from incubations with inhibitor were normalized to DMSO controls.

HDAC1 = target: T2, HDAC1 (Homo sapiens, UniProt Q13547); assay: In vitro HDAC enzyme inhibition assay, HDAC1; type: biochemical; details: for HDAC1/HDAC6 in vitro selectivity: ratio of IC50 for HDAC1 relative to that of HDAC6; for pIC50: recombinant full-length HDAC1, substrate MAZ1600 21 μM
T2 construct: Recombinant, full-length HDAC protein (BPS Biosciences) was incubated with fluorophore conjugated substrate; purchased BPS Biosciences
T2 sequence (Q13547 whole entry): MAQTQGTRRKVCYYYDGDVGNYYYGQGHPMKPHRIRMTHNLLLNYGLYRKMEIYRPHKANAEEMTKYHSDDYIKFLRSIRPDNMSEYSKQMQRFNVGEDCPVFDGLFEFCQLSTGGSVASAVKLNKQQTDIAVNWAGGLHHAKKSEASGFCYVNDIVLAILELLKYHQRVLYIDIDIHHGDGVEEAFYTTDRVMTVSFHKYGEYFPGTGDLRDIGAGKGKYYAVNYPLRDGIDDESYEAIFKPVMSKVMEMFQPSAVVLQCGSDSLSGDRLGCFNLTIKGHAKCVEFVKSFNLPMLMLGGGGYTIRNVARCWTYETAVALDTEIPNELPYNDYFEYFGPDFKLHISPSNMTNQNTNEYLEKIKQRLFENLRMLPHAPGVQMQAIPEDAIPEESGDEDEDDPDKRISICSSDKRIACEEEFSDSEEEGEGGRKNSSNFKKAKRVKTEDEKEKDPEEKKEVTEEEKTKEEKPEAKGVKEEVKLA
Method: as §1, §2

HDAC3 = target: T3, HDAC3 (Homo sapiens, UniProt O15379); assay: In vitro HDAC enzyme inhibition assay, HDAC3; type: biochemical; details: for HDAC3/HDAC6 in vitro selectivity: ratio of IC50 for HDAC3 relative to that of HDAC6; for pIC50: recombinant full-length HDAC3, substrate MAZ1600 9 μM
T3 construct: Recombinant, full-length HDAC protein (BPS Biosciences) was incubated with fluorophore conjugated substrate; purchased BPS Biosciences
T3 sequence (O15379 whole entry): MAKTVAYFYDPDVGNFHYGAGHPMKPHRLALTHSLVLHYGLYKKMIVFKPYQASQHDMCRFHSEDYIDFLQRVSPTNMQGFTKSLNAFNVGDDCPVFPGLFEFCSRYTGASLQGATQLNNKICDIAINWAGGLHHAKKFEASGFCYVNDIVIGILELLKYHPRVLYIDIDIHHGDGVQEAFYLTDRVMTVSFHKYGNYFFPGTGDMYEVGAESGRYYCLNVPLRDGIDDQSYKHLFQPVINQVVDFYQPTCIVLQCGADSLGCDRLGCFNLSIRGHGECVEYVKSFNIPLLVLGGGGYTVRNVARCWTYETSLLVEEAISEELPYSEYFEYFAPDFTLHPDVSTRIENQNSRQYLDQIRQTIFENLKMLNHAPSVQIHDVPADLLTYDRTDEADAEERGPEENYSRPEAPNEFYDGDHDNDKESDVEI
T3 sequence (Q9Y618 395-489 partner limits assumed): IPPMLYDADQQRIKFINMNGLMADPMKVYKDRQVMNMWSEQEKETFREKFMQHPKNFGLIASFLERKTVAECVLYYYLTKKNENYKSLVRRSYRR
Method: as §1, §2

HDAC9 = target: T4, HDAC9 (Homo sapiens, UniProt Q9UKV0); assay: In vitro HDAC enzyme inhibition assay, HDAC9; type: biochemical; details: for HDAC9/HDAC6 in vitro selectivity: ratio of IC50 for HDAC9 relative to that of HDAC6; for pIC50: recombinant full-length HDAC9, substrate MAZ1675 26 μM; for selectivity toward HDAC6 compared to HDAC9 (in words): tested in vitro
T4 construct: Recombinant, full-length HDAC protein (BPS Biosciences) was incubated with fluorophore conjugated substrate; purchased BPS Biosciences
T4 sequence (Q9UKV0 whole entry): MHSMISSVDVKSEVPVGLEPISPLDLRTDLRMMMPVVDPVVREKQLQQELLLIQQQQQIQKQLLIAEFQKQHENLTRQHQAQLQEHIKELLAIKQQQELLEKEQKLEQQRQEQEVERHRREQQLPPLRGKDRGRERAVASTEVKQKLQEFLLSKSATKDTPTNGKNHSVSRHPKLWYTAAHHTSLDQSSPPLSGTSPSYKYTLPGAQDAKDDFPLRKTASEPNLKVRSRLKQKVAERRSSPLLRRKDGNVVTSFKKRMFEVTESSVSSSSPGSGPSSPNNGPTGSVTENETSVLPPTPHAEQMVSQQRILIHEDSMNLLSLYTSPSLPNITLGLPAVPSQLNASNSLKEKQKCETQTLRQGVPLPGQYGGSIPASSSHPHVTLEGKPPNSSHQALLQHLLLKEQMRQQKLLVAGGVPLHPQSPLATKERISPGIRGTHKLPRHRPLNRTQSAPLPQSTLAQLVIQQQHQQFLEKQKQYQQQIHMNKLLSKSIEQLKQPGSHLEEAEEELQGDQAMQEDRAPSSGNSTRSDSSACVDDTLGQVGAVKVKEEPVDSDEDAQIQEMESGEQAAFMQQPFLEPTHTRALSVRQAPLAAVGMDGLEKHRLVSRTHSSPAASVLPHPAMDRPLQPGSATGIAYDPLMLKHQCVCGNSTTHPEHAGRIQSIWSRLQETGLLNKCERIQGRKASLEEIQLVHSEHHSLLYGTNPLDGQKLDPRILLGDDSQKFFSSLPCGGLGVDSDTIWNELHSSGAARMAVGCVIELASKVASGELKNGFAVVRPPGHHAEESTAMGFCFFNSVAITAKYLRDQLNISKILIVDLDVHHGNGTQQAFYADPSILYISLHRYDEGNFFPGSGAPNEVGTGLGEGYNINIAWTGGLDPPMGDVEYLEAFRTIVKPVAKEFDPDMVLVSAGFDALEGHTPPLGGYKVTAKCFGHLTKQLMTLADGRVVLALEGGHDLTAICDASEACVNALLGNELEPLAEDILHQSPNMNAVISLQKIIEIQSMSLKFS
Method: as §1, §2

HDAC8 = target: T5, HDAC8 (Homo sapiens, UniProt Q9BY41); assay: In vitro HDAC enzyme inhibition assay, HDAC8; type: biochemical; details: for HDAC8/HDAC6 in vitro selectivity: ratio of IC50 for HDAC8 relative to that of HDAC6; for pIC50: recombinant full-length HDAC8, substrate MAZ1675 282 μM
T5 construct: Recombinant, full-length HDAC protein (BPS Biosciences) was incubated with fluorophore conjugated substrate; purchased BPS Biosciences
T5 sequence (Q9BY41 1-377): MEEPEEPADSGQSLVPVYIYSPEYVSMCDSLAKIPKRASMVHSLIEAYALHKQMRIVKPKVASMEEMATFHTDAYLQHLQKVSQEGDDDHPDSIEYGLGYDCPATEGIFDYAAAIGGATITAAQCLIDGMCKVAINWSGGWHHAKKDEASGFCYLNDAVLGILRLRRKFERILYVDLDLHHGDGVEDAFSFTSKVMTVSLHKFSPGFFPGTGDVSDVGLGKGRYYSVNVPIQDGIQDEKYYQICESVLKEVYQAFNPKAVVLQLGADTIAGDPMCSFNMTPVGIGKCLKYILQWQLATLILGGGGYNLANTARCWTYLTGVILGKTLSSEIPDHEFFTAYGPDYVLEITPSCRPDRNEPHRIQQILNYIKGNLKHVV
Method: as §1, §2

| HDAC5/HDAC6 in vitro selectivity (HDAC5) | pIC50 (HDAC5) | pEC50 (acetylated tubulin) | HDAC1/HDAC6 in vitro selectivity (HDAC1) | pIC50 (HDAC1) | HDAC3/HDAC6 in vitro selectivity (HDAC3) | pIC50 (HDAC3) | HDAC9/HDAC6 in vitro selectivity (HDAC9) | pIC50 (HDAC9) | HDAC8/HDAC6 in vitro selectivity (HDAC8) | pIC50 (HDAC8) | Structure (SMILES) | selectivity toward HDAC6 compared to HDAC5 (in words) (HDAC5) | AcHistone/AcTubulin in cell selectivity toward HDAC6 (acetylated tubulin) | selectivity toward HDAC6 compared to HDAC9 (in words) (HDAC9) |
| --- | --- | --- | --- | --- | --- | --- | --- | --- | --- | --- | --- | --- | --- | --- |
| 68665 | 5.74 | 6.84 | 8300 | 6.66 | 19646 | 6.29 | 62138 | 5.79 | 28870 | 6.12 | O=C(NO)c1ccc(Cn2nnc3cc(F)ccc32)cc1 [C3, 4-((5-fluoro-1H-benzo[d][1,2,3]triazol-1-yl)methyl)-N-hydroxybenzamide] | exceptionally high selectivity (Inhibitors with in vitro selectivity values for HDAC6 of at least 30,000 are considered to have exceptionally high selectivity toward HDAC6) | 10.4517 | exceptionally high selectivity (Inhibitors with in vitro selectivity values for HDAC6 of at least 30,000 are considered to have exceptionally high selectivity toward HDAC6) |
| 26352 | 5.84 | 5.72 | 1712 | 7.02 | 3920 | 6.66 | 26037 | 5.84 | 11132 | 6.21 | O=C(NO)c1ccc(Cn2nnc3cc(Cl)ccc32)cc1 [C4, 4-((5-chloro-1H-benzo[d][1,2,3]triazol-1-yl)methyl)-N-hydroxybenzamide] | – | 3.137 | – |
| 48751 | 5.90 | 6.83 | 2113 | 7.26 | 4479 | 6.94 | 42107 | 5.96 | 16483 | 6.37 | O=C(NO)c1ccc(Cn2nnc3cc(Br)ccc32)cc1 [C5, 4-((5-bromo-1H-benzo[d][1,2,3]triazol-1-yl)methyl)-N-hydroxybenzamide] | exceptionally high selectivity (Inhibitors with in vitro selectivity values for HDAC6 of at least 30,000 are considered to have exceptionally high selectivity toward HDAC6) | 15.37 | exceptionally high selectivity (Inhibitors with in vitro selectivity values for HDAC6 of at least 30,000 are considered to have exceptionally high selectivity toward HDAC6) |
